Key:
Type in all cases: in vivo
[1] = system: fig-leafed goosefoot; test: Test Example 3: weedkilling efficacy through soil treatment; M: fig-leafed goosefoot; settings: treatment dosage 315 g/ha
Method in brief: (§1)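 Crop and weed responses were judged three weeks after a uniform surface spray of the water-diluted emulsion at the given g/ha rate. Seeds sat beneath about 1.5 cm of sterilized diluvial soil, and boxes stood in a greenhouse at 25 to 30° C.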

[2] = system: corn; test: Test Example 4: foliar treatment, effect on crop; c: corn; settings: treatment dosage 315 g/ha
Method in brief: (§2)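 Seeds are spot-sown into sterilized diluvial soil and covered with about 1.5 cm of soil. After 14 days' greenhouse growth at 25 to 30° C, plants are sprayed on stems and leaves with diluted emulsion at the stated g/ha rate, then scored at 3 weeks.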

[3] = system: oval-leafed pondweed; test: Test Example 1: weedkilling efficacy, preemergent weed treatment in the submerged state; C: oval-leafed pondweed; settings: treatment dosage 252 g/ha
Method in brief: (§3)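 Alluvial soil in Wagner pots flooded to 4 cm; barnyard grass, bulrush and oval-leafed pondweed seeds sown, then 2.5-leaf rice seedlings transplanted. Same day, emulsified compound diluted in water to set g/ha dosages and applied to water surface; greenhouse 25–30 °C, effect scored by criteria after 3 weeks.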

[4] = system: wheat; test: Test Example 3: soil treatment, effect on crop; e: wheat; settings: treatment dosage 315 g/ha
Method in brief: as §1

[5] = system: wild oat; test: Test Example 3: weedkilling efficacy through soil treatment; G: wild oat; settings: treatment dosage 315 g/ha
Method in brief: as §1

[6] = system: black-grass; test: Test Example 4: weedkilling efficacy by foliar treatment; H: black-grass; settings: treatment dosage 315 g/ha
Method in brief: as §2

[7] = system: redroot pigweed; test: Test Example 3: weedkilling efficacy through soil treatment; L: redroot pigweed; settings: treatment dosage 315 g/ha
Method in brief: as §1

[8] = system: beet; test: Test Example 3: soil treatment, effect on crop; f: beet; settings: treatment dosage 315 g/ha
Method in brief: as §1

[9] = system: barnyard grass; test: Test Example 1: weedkilling efficacy, preemergent weed treatment in the submerged state; A: barnyard grass; settings: treatment dosage 252 g/ha
Method in brief: as §3

[10] = system: black-grass; test: Test Example 3: weedkilling efficacy through soil treatment; H: black-grass; settings: treatment dosage 315 g/ha
Method in brief: as §1

[11] = system: bulrush; test: Test Example 1: weedkilling efficacy, preemergent weed treatment in the submerged state; B: bulrush; settings: treatment dosage 252 g/ha
Method in brief: as §3

[12] = system: birds-eye speedwell; test: Test Example 4: weedkilling efficacy by foliar treatment; p: birds-eye speedwell; settings: treatment dosage 315 g/ha
Method in brief: as §2

[13] = system: redroot pigweed; test: Test Example 4: weedkilling efficacy by foliar treatment; L: redroot pigweed; settings: treatment dosage 315 g/ha
Method in brief: as §2

[14] = system: directly sown rice; test: Test Example 4: foliar treatment, effect on crop; b: directly sown rice; settings: treatment dosage 315 g/ha
Method in brief: as §2

[15] = system: wild oat; test: Test Example 4: weedkilling efficacy by foliar treatment; G: wild oat; settings: treatment dosage 315 g/ha
Method in brief: as §2

[16] = system: Italian ryegrass; test: Test Example 3: weedkilling efficacy through soil treatment; I: Italian ryegrass; settings: treatment dosage 315 g/ha
Method in brief: as §1

[17] = system: green foxtail; test: Test Example 4: weedkilling efficacy by foliar treatment; E: green foxtail; settings: treatment dosage 315 g/ha
Method in brief: as §2

[18] = system: barnyard grass; test: Test Example 2: weedkilling efficacy, growth period weed treatment in the submerged state; A: barnyard grass; settings: treatment dosage 252 g/ha
Method in brief: (§4)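 First, alluvial soil in pots is flooded to 4 cm and mixed seed is sown. Next, plants grow in a greenhouse at 25 to 30° C until the 1-2 leaf stage. Then diluted emulsion is applied onto the water surface at the given g/ha rate, and injury is assessed after 3 weeks.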

[19] = system: crabgrass; test: Test Example 3: weedkilling efficacy through soil treatment; D: crabgrass; settings: treatment dosage 315 g/ha
Method in brief: as §1

[20] = system: transplanted rice; test: Test Example 1: preemergent weed treatment in the submerged state, effect on crop; a: transplanted rice; settings: treatment dosage 252 g/ha
Method in brief: as §3

[21] = system: Indian mallow; test: Test Example 4: weedkilling efficacy by foliar treatment; K: Indian mallow; settings: treatment dosage 315 g/ha
Method in brief: as §2

[22] = system: soybean; test: Test Example 4: foliar treatment, effect on crop; d: soybean; settings: treatment dosage 315 g/ha
Method in brief: as §2

[23] = system: chickweed; test: Test Example 4: weedkilling efficacy by foliar treatment; N: chickweed; settings: treatment dosage 315 g/ha
Method in brief: as §2

[24] = system: fig-leafed goosefoot; test: Test Example 4: weedkilling efficacy by foliar treatment; M: fig-leafed goosefoot; settings: treatment dosage 315 g/ha
Method in brief: as §2

[25] = system: catchweed; test: Test Example 4: weedkilling efficacy by foliar treatment; O: catchweed; settings: treatment dosage 315 g/ha
Method in brief: as §2

[26] = system: oval-leafed pondweed; test: Test Example 2: weedkilling efficacy, growth period weed treatment in the submerged state; C: oval-leafed pondweed; settings: treatment dosage 252 g/ha
Method in brief: as §4

[27] = system: corn; test: Test Example 3: soil treatment, effect on crop; c: corn; settings: treatment dosage 315 g/ha
Method in brief: as §1

[28] = system: chickweed; test: Test Example 3: weedkilling efficacy through soil treatment; N: chickweed; settings: treatment dosage 315 g/ha
Method in brief: as §1

[29] = system: beet; test: Test Example 4: foliar treatment, effect on crop; f: beet; settings: treatment dosage 315 g/ha
Method in brief: as §2

[30] = system: Italian ryegrass; test: Test Example 4: weedkilling efficacy by foliar treatment; I: Italian ryegrass; settings: treatment dosage 315 g/ha
Method in brief: as §2

[31] = system: Indian mallow; test: Test Example 3: weedkilling efficacy through soil treatment; K: Indian mallow; settings: treatment dosage 315 g/ha
Method in brief: as §1

[32] = system: wheat; test: Test Example 4: foliar treatment, effect on crop; e: wheat; settings: treatment dosage 315 g/ha
Method in brief: as §2

[33] = system: bulrush; test: Test Example 2: weedkilling efficacy, growth period weed treatment in the submerged state; B: bulrush; settings: treatment dosage 252 g/ha
Method in brief: as §4

[34] = system: green foxtail; test: Test Example 3: weedkilling efficacy through soil treatment; E: green foxtail; settings: treatment dosage 315 g/ha
Method in brief: as §1

[35] = system: soybean; test: Test Example 3: soil treatment, effect on crop; d: soybean; settings: treatment dosage 315 g/ha
Method in brief: as §1

[36] = system: crabgrass; test: Test Example 4: weedkilling efficacy by foliar treatment; D: crabgrass; settings: treatment dosage 315 g/ha
Method in brief: as §2

[37] = system: birds-eye speedwell; test: Test Example 3: weedkilling efficacy through soil treatment; p: birds-eye speedwell; settings: treatment dosage 315 g/ha
Method in brief: as §1

SMILES | M (fig-leafed goosefoot) weedkilling efficacy grade [1] | c (corn) effect on crop grade [2] | C (oval-leafed pondweed) weedkilling efficacy grade [3] | e (wheat) effect on crop grade [4] | G (wild oat) weedkilling efficacy grade [5] | H (black-grass) weedkilling efficacy grade [6] | L (redroot pigweed) weedkilling efficacy grade [7] | f (beet) effect on crop grade [8] | A (barnyard grass) weedkilling efficacy grade [9] | H (black-grass) weedkilling efficacy grade [10] | B (bulrush) weedkilling efficacy grade [11] | P (birds-eye speedwell) weedkilling efficacy grade [12] | L (redroot pigweed) weedkilling efficacy grade [13] | b (directly sown rice) effect on crop grade [14] | G (wild oat) weedkilling efficacy grade [15] | I (Italian ryegrass) weedkilling efficacy grade [16] | E (green foxtail) weedkilling efficacy grade [17] | A (barnyard grass) weedkilling efficacy grade [18] | D (crabgrass) weedkilling efficacy grade [19] | a (transplanted rice) effect on crop grade [20] | further results
CC1=C(c2ccccc2)C(=O)N(C(C)(C)C(=O)Nc2cncc(Cl)c2)CO1 [B-3-02] | 4 (weed kill ratio 70% or more, less than 90%) | 4 (weed kill ratio 70% or more, less than 90%) | 5 (weed kill ratio 90% or more, (practically complete withering)) | 5 (weed kill ratio 90% or more, (practically complete withering)) | 5 (weed kill ratio 90% or more, (practically complete withering)) | 5 (weed kill ratio 90% or more, (practically complete withering)) | 5 (weed kill ratio 90% or more, (practically complete withering)) | 4 (weed kill ratio 70% or more, less than 90%) | 5 (weed kill ratio 90% or more, (practically complete withering)) | 5 (weed kill ratio 90% or more, (practically complete withering)) | 5 (weed kill ratio 90% or more, (practically complete withering)) | 3 (weed kill ratio 40% or more, less than 70%) | 3 (weed kill ratio 40% or more, less than 70%) | 5 (weed kill ratio 90% or more, (practically complete withering)) | 5 (weed kill ratio 90% or more, (practically complete withering)) | 5 (weed kill ratio 90% or more, (practically complete withering)) | 5 (weed kill ratio 90% or more, (practically complete withering)) | 4 (weed kill ratio 70% or more, less than 90%) | 5 (weed kill ratio 90% or more, (practically complete withering)) | 3 (weed kill ratio 40% or more, less than 70%) | K (Indian mallow) weedkilling efficacy grade [21]: 4 (weed kill ratio 70% or more, less than 90%); d (soybean) effect on crop grade [22]: 4 (weed kill ratio 70% or more, less than 90%); N (chickweed) weedkilling efficacy grade [23]: 0 (weed kill ratio 5% or less (practically no effect)); M (fig-leafed goosefoot) weedkilling efficacy grade [24]: 2 (weed kill ratio 20% or more, less than 40%); O (catchweed) weedkilling efficacy grade [25]: 4 (weed kill ratio 70% or more, less than 90%); C (oval-leafed pondweed) weedkilling efficacy grade [26]: 5 (weed kill ratio 90% or more, (practically complete withering)); c (corn) effect on crop grade [27]: 3 (weed kill ratio 40% or more, less than 70%); N (chickweed) weedkilling efficacy grade [28]: 4 (weed kill ratio 70% or more, less than 90%); f (beet) effect on crop grade [29]: 3 (weed kill ratio 40% or more, less than 70%); I (Italian ryegrass) weedkilling efficacy grade [30]: 5 (weed kill ratio 90% or more, (practically complete withering)); K (Indian mallow) weedkilling efficacy grade [31]: 3 (weed kill ratio 40% or more, less than 70%); e (wheat) effect on crop grade [32]: 3 (weed kill ratio 40% or more, less than 70%); B (bulrush) weedkilling efficacy grade [33]: 5 (weed kill ratio 90% or more, (practically complete withering)); E (green foxtail) weedkilling efficacy grade [34]: 5 (weed kill ratio 90% or more, (practically complete withering)); d (soybean) effect on crop grade [35]: 0 (weed kill ratio 5% or less (practically no effect)); D (crabgrass) weedkilling efficacy grade [36]: 5 (weed kill ratio 90% or more, (practically complete withering))
CC1=C(c2ccccc2)C(=O)N(C(C)(C)C(=O)Nc2ccnc(F)c2)CO1 [B-4-02] | 5 (weed kill ratio 90% or more, (practically complete withering)) | 4 (weed kill ratio 70% or more, less than 90%) | 5 (weed kill ratio 90% or more, (practically complete withering)) | 1 (weed kill ratio 5% or more, less than 20%) | 5 (weed kill ratio 90% or more, (practically complete withering)) | 5 (weed kill ratio 90% or more, (practically complete withering)) | 5 (weed kill ratio 90% or more, (practically complete withering)) | 3 (weed kill ratio 40% or more, less than 70%) | 5 (weed kill ratio 90% or more, (practically complete withering)) | 5 (weed kill ratio 90% or more, (practically complete withering)) | 5 (weed kill ratio 90% or more, (practically complete withering)) | 5 (weed kill ratio 90% or more, (practically complete withering)) | 4 (weed kill ratio 70% or more, less than 90%) | 5 (weed kill ratio 90% or more, (practically complete withering)) | 5 (weed kill ratio 90% or more, (practically complete withering)) | 5 (weed kill ratio 90% or more, (practically complete withering)) | 5 (weed kill ratio 90% or more, (practically complete withering)) | 3 (weed kill ratio 40% or more, less than 70%) | 5 (weed kill ratio 90% or more, (practically complete withering)) | 3 (weed kill ratio 40% or more, less than 70%) | P (birds-eye speedwell) weedkilling efficacy grade [37]: 5 (weed kill ratio 90% or more, (practically complete withering)); K (Indian mallow) weedkilling efficacy grade [21]: 3 (weed kill ratio 40% or more, less than 70%); d (soybean) effect on crop grade [22]: 4 (weed kill ratio 70% or more, less than 90%); N (chickweed) weedkilling efficacy grade [23]: 3 (weed kill ratio 40% or more, less than 70%); M (fig-leafed goosefoot) weedkilling efficacy grade [24]: 4 (weed kill ratio 70% or more, less than 90%); O (catchweed) weedkilling efficacy grade [25]: 5 (weed kill ratio 90% or more, (practically complete withering)); C (oval-leafed pondweed) weedkilling efficacy grade [26]: 4 (weed kill ratio 70% or more, less than 90%); c (corn) effect on crop grade [27]: 4 (weed kill ratio 70% or more, less than 90%); N (chickweed) weedkilling efficacy grade [28]: 4 (weed kill ratio 70% or more, less than 90%); I (Italian ryegrass) weedkilling efficacy grade [30]: 5 (weed kill ratio 90% or more, (practically complete withering)); K (Indian mallow) weedkilling efficacy grade [31]: 4 (weed kill ratio 70% or more, less than 90%); e (wheat) effect on crop grade [32]: 0 (weed kill ratio 5% or less (practically no effect)); B (bulrush) weedkilling efficacy grade [33]: 5 (weed kill ratio 90% or more, (practically complete withering)); E (green foxtail) weedkilling efficacy grade [34]: 5 (weed kill ratio 90% or more, (practically complete withering)); d (soybean) effect on crop grade [35]: 1 (weed kill ratio 5% or more, less than 20%); D (crabgrass) weedkilling efficacy grade [36]: 5 (weed kill ratio 90% or more, (practically complete withering))
